Experimental findings from the NIST ThermoML archive (doi:10.1016/j.jct.2012.08.009) are described below.

± gives the expanded uncertainty stated by the source.

The conditions of data set [1]: Liquid; for mass density: 293.15 K, 101.33 kPa, Pycnometric method; for Normal boiling temperature: Ebulliometric method (Recirculating still).
A short description of data set [2]: refractive index (Na D-line) (dimensionless). As to conditions: 293.15 K; 101.33 kPa; Liquid; Standard Abbe refractometry.
Data set [3] is described as follows: relative permittivity at zero frequency (dimensionless). As to conditions: 293.15 K; 91.3 kPa; Liquid; Coaxial cylinder capacitor.
Data set [4] in a line: relative permittivity at zero frequency (dimensionless); xn = mol fraction of the nth substance listed. The note with it: 293.15 K, 91.3 kPa, Liquid, Coaxial cylinder capacitor.

Usually mass density stands for the mass of a sample divided by its volume. A word on the refractive index: it is the speed of light in vacuum divided by its phase velocity in the sample. Regarding `CC(=O)O` [acetic acid], in data set [1], the mass density came out at 1055 ± 4.1 kg/m3 and the Normal boiling temperature was determined as 118.0 ± 0.51 °C. The refractive index in data set [2] came to 1.372 ± 0.0028. In addition, the “relative permittivity at zero frequency” value in data set [3] came to 6.15 ± 0.02.
For the molecule `CC(=O)O` [acetic acid] + O, the “relative permittivity at zero frequency” value in data set [4] (x1 = 0.05) is 73.5 ± 0.23; in data set [4] (x1 = 0.1) it was 67.7 ± 0.22; in data set [4] (x1 = 0.2) it was 58 ± 0.18; in data set [4] (x1 = 0.3), 49.4 ± 0.16; in data set [4] (x1 = 0.4), 41.8 ± 0.13; in data set [4] (x1 = 0.5) it was 34.9 ± 0.11. For the same molecule, the “relative permittivity at zero frequency” value stood at 28.5 ± 0.09 in data set [4] (x1 = 0.6); 22.41 ± 0.07 in data set [4] (x1 = 0.7); 16.55 ± 0.05 in data set [4] (x1 = 0.8); 11.11 ± 0.04 in data set [4] (x1 = 0.9); 8.64 ± 0.03 in data set [4] (x1 = 0.95); 7.25 ± 0.02 in data set [4] (x1 = 0.98). In addition, the “relative permittivity at zero frequency” value in data set [4] (x1 = 1) worked out at 6.15 ± 0.02.
`CCO` [ethanol]: in data set [1], the mass density worked out at 790 ± 2.1 kg/m3 and the Normal boiling temperature was 78.20 ± 0.51 °C. In addition, in data set [2], the refractive index amounted to 1.3612 ± 0.0028. For the same molecule, the “relative permittivity at zero frequency” value in data set [3] was determined as 25.02 ± 0.08.
For `CCO` [ethanol] + O, the “relative permittivity at zero frequency” value in data set [4] (x1 = 0.05) is recorded as 74.7 ± 0.24; in data set [4] (x1 = 0.1), 69.4 ± 0.22; in data set [4] (x1 = 0.2), 59.98 ± 0.19; in data set [4] (x1 = 0.3), 52.2 ± 0.17; in data set [4] (x1 = 0.4), 46.1 ± 0.15; in data set [4] (x1 = 0.5), 41.1 ± 0.13. Besides, the “relative permittivity at zero frequency” value in data set [4] (x1 = 0.6) worked out at 37.01 ± 0.12; in data set [4] (x1 = 0.7), 33.5 ± 0.11; in data set [4] (x1 = 0.8), 30.36 ± 0.1; in data set [4] (x1 = 0.9), 27.55 ± 0.09; in data set [4] (x1 = 0.95), 26.28 ± 0.08; in data set [4] (x1 = 0.98), 25.53 ± 0.08. The “relative permittivity at zero frequency” value in data set [4] (x1 = 1) came to 25.02 ± 0.08.
On to `CO` [methanol], for which, in data set [1], the mass density is given as 793 ± 2.1 kg/m3 and the Normal boiling temperature amounted to 64.70 ± 0.51 °C. The refractive index in data set [2] was 1.328 ± 0.0027. For the same molecule, the “relative permittivity at zero frequency” value in data set [3] is 33 ± 0.11.
As to `CO` [methanol] + O, the “relative permittivity at zero frequency” value is 76.058 ± 0.24 in data set [4] (x1 = 0.05); 72.27 ± 0.23 in data set [4] (x1 = 0.1); 65.58 ± 0.21 in data set [4] (x1 = 0.2); 59.67 ± 0.19 in data set [4] (x1 = 0.3); 54.7 ± 0.17 in data set [4] (x1 = 0.4); 50.22 ± 0.16 in data set [4] (x1 = 0.5). Moreover, the “relative permittivity at zero frequency” value was 46.22 ± 0.15 in data set [4] (x1 = 0.6); 42.54 ± 0.14 in data set [4] (x1 = 0.7); 39.18 ± 0.12 in data set [4] (x1 = 0.8); 36.1 ± 0.12 in data set [4] (x1 = 0.9); 34.65 ± 0.11 in data set [4] (x1 = 0.95); 33.72 ± 0.11 in data set [4] (x1 = 0.98). Further, the “relative permittivity at zero frequency” value in data set [4] (x1 = 1) was 33 ± 0.11.
For `O` [water], in data set [1], the mass density is reported as 999 ± 2.2 kg/m3 and the Normal boiling temperature was determined as 100.0 ± 0.5 °C. Besides, in data set [2], the refractive index was 1.3342 ± 0.0028. For the same molecule, the “relative permittivity at zero frequency” value in data set [3] was 79.99 ± 0.25.
Regarding `O` [water] + CC(=O)O, the “relative permittivity at zero frequency” value in data set [4] (x2 = 0) is listed as 79.99 ± 0.25.
For the molecule `O` [water] + CCO, the “relative permittivity at zero frequency” value in data set [4] (x2 = 0) is reported as 79.99 ± 0.25.
With `O` [water] + CO, the “relative permittivity at zero frequency” value in data set [4] (x2 = 0) is 79.99 ± 0.25.
